Source: patent publication US20050090529A1, “3,5 Disubstituted indazole compounds with nitrogen-bearing 5-membered heterocycles, pharmaceutical compositions, and methods for mediating or inhibiting cell proliferation” (PFIZER INC, priority 2003, published 2005)

Target: T1, CDK2/Cyclin A (Homo sapiens, UniProt P24941)
T1 construct: made in house; host or cells: CDK2: insect cells (baculovirus); cyclin A: E. coli
Assay: Inhibition of CDK2/Cyclin A retinoblastoma kinase activity (apparent Ki)
Format: biochemical
Conditions: read-out: CDK2 Ki
Description: Cyclin-dependent kinase activity was measured by quantifying the enzyme-catalyzed, time-dependent incorporation of radioactive phosphate from [^32P]ATP or [^33P]ATP into a protein substrate. […] Reactions were initiated with enzyme, incubated at 30° C., and terminated after 20 minutes by the addition of ethylenediaminetetraacetic acid (EDTA) to 250 mM. […] Radioactivity was quantified by exposing the dried membranes to a phosphorimager.
Apparent Ki values were measured by assaying enzyme activity in the presence of different inhibitor compound concentrations and subtracting the background radioactivity measured in the absence of enzyme. Inhibition data were fit to an equation for competitive inhibition using Kaleidagraph (Synergy Software), or were fit to an equation for competitive tight-binding inhibition using the software KineTic (BioKin, Ltd.).
A complex of CDK2 and proteolyzed cyclin A was prepared and purified by gel filtration. […] Ki values were measured as described above.

Row | SMILES | Ki [nM]
1 | CCNCc1cncc(-c2ccc3[nH]nc(-c4nc5c([nH]4)CCCC5)c3c2)c1C [Example 21, Ethyl-{4-methyl-5-[3-(4,5,6,7-tetrahydro-1H-benzoimidazol-2-yl)-1H-indazol-5-yl]-pyridin-3-ylmethyl}-amine] | < 50
2 | CCNCc1cncc(-c2ccc3[nH]nc(-c4nc(-c5ccc(OC)cc5)c[nH]4)c3c2)c1C [Example 34, Ethyl-(5-{3-[4-(4-methoxy-phenyl)-1H-imidazol-2-yl]-1H-indazol-5-yl}-4-methyl-pyridin-3-ylmethyl)-amine] | < 50
3 | CCNCc1cncc(-c2ccc3[nH]nc(-c4cc(C)n[nH]4)c3c2)c1C [Example 89, Ethyl-{4-methyl-5-[3-(5-methyl-2H-pyrazol-3-yl)-1H-indazol-5-yl]-pyridin-3-ylmethyl}-amine] | < 50
4 | CCNCc1cncc(-c2ccc3[nH]nc(-c4nc(C)c[nH]4)c3c2)c1C [Example 92, N-({4-methyl-5-[3-(4-methyl-1H-imidazol-2-yl)-1H-indazol-5-yl]pyridin-3-yl}methyl)ethanamine] | < 50
5 | Cc1c(N)cncc1-c1ccc2[nH]nc(-c3nc(-c4cccc(F)c4)c[nH]3)c2c1 [Example 38, 5-{3-[4-(3-Fluoro-phenyl)-1H-imidazol-2-yl]-1H-indazol-5-yl}-4-methyl-pyridin-3-ylamine] | < 50
6 | CCNCc1cncc(-c2ccc3[nH]nc(-c4nc(-c5ccc(OC)c(OC)c5)c[nH]4)c3c2)c1C [Example 33, (5-{3-[4-(3,4-Dimethoxy-phenyl)-1H-imidazol-2-yl]-1H-indazol-5-yl}-4-methyl-pyridin-3-ylmethyl)-ethyl-amine] | < 50
7 | CNCc1cncc(-c2ccc3[nH]nc(-c4ncc[nH]4)c3c2)c1C [Example 45, {5-[3-(1H-Imidazol-2-yl)-1H-indazol-5-yl]-4-methyl-pyridin-3-ylmethyl}-methyl-amine] | < 50

Now from value to compound:

Row | Ki [nM] | SMILES
8 | 50 to 200 | CCNCc1cncc(-c2ccc3[nH]nc(-c4nc(-c5ccccc5)c(C(=O)NC5CCCCC5)[nH]4)c3c2)c1C [Example 12, 2-[5-(5-Ethylaminomethyl-4-methyl-pyridin-3-yl)-1H-indazol-3-yl]-5-phenyl-3H-imidazole-4-carboxylic acid cyclohexylamide]
9 | < 50 | CCNCc1cncc(-c2ccc3[nH]nc(-c4ncc(C(=O)N(CC)CC)[nH]4)c3c2)c1C [Example 56, N,N-diethyl-2-(5-{5-[(ethylamino)methyl]-4-methylpyridin-3-yl}-1H-indazol-3-yl)-1H-imidazole-5-carboxamide]
10 | < 50 | CCNCc1cncc(-c2ccc3[nH]nc(-c4nc(C(=O)NCc5ccccn5)c[nH]4)c3c2)c1C [Example 52, 2-(5-{5-[(ethylamino)methyl]-4-methylpyridin-3-yl}-1H-indazol-3-yl)-N-(pyridin-2-ylmethyl)1H-imidazole-5-carboxamide]
11 | > 200 | CCNCc1cncc(-c2ccc3[nH]nc(-c4nc(-c5ccccc5)c(C(=O)NCCCCO)[nH]4)c3c2)c1C [Example 18, 2-[5-(5-Ethylaminomethyl-4-methyl-pyridin-3-yl)-1H-indazol-3-yl]-5-phenyl-3H-imidazole-4-carboxylic acid (4-hydroxy-butyl)-amide]
12 | < 50 | CCNCc1cncc(-c2ccc3[nH]nc(-c4ncc(C(=O)N5CCC(Oc6ccccc6)CC5)[nH]4)c3c2)c1C [Example 70, N-{[4-methyl-5-(3-{5-[(4-phenoxypiperidin-1-yl)carbonyl]-1H-imidazol-2-yl}-1H-indazol-5-yl)pyridin-3-yl]methyl}ethanamine]
13 | < 50 | CCNCc1cncc(-c2ccc3[nH]nc(-c4nc(C(=O)N5CCN(C)CC5)c[nH]4)c3c2)c1C [Example 57, N-{[4-methyl-5-(3-{5-[(4-methylpiperazin-1-yl)carbonyl]-1H-imidazol-2-yl}-1H-indazol-5-yl)pyridin-3-yl]methyl}ethanamine]
